These results are taken from patent publication EP3389676B1, “DOSAGE REGIMEN OF SODIUM SELENITE IN THE TREATMENT OF CANCER” (Pharma Nord ApS, priority 2015, dated 2017).

For data set [1], the system named is patients with advanced cancer diseases. The data set can be described thus: Phase I dose-escalation trial of intravenously administered sodium selenite: toxicity and MTD. The data set is classed as in vivo, human. On the procedure: In a previous study, the present inventors carried out the first in-human phase-I trial to determine the MTD of intravenously administered sodium selenite in patients with advanced cancer diseases.
This phase I trial is an open-label dose-escalation study of i.v. administered sodium selenite. Each cohort consists of three patients who are treated with dosages regimens according to a predefined schedule having the two-step dosage regimen.
Serious toxicity in primarily the brain and the heart has been recorded in patients treated with high doses of selenite.
With a few exceptions, all patients visited the clinic before and after infusion, at least once a week during the treatment, before each chemotherapy treatment and at the end of treatment. At these occasions, the medical history is recorded, and a physical examination is performed. Patients undergo CT or PET-CT examination one week before the start, three days after the completion of the selenite treatment and after the final chemotherapy treatment. Routine blood parameters are analysed before, during and after the treatment. The ECG is examined before the start and after both the selenite and chemotherapy treatments.

Data set [2] relates to cancer patients. The following applies: cumulative intravenous administration of 100 mg; reports about a century ago; cited from earlier work.
The test system of data set [3] is patients with advanced cancer diseases. The following applies: SECAR clinical phase I study; intermittent daily infusions (20-40 minutes); Brodin et al. 2014; cited from earlier work.
The nature of data set [4]: Pharmacokinetics: plasma selenium by ICP-MS, one compartment infusion model. The format is in vivo, human. How it is done: Blood samples are collected about 5 minutes prior and post infusion at all treatments. The plasma fractions are obtained by centrifugation and stored at -70°C until analyses.
Pharmacokinetic analyses are performed by using the Win-Nonlin program Standard Edition version 1.5 (Pharsight Corporation, Mountain View, CA, USA).
The one compartment infusion model was used for the evaluation of the pharmacokinetics. The reciprocal concentrations were used as weights for the iterative procedure. […] AUC values during the entire treatment period (i.e. from day 0 to day 35) were evaluated by applying the trapezoidal rule to estimated time-concentration curves.

With `O=[Se](O)O` [sodium selenite], the “Toxicity registered from similar dose, during similar time but as intermittent infusion” value in data set [1] (3.0 mg/m^2, cohort 2) is 3.0 mg/m^2, cohort 2, no certain toxicity,; in data set [1] (4.5 mg/m^2, cohort 3), “very mild toxicity”; in data set [1] (6.0 mg/m^2, cohort 4), 6.0 mg/m^2, cohort 4, mild toxicity; in data set [1] (9.0 mg/m2, cohort 5) it was “gr 1 toxicity”; in data set [1] (20.4 mg/m^2, cohort 7), “grade 2 toxicity”; in data set [1] (38.4 mg/m^2, cohort 10), 38.4 mg/m^2, cohort 10, gr 3 & gr 4 toxicity. Also, the “duration of dose-limiting toxicity (DLT)” value in data set [1] (DLT appeared some hours after selenite infusion, without persisting toxicity or sequelae) lay within 6 to 8 h. In data set [1] (at MTD dose (10.2 mg/m^2) and below), the bone marrow toxicity result is reported as “no bone marrow toxicity was evident”. In data set [1] (cohort 8, total dose given as intermittent infusion over similar time), the “MTD for repeated infusions” value was 30.6 mg/m2. For the same compound, the “toxicity mainly observed as” value in data set [1] (could be dose-limiting in spite of antiemetic treatment) was “nausea, vomiting and fatigue”. Further, in data set [1] (especially at high dose levels such as beyond MTD), the “most significant adverse effects” value is “heart toxicity with signs of ischemia, confusion and unconsciousness”. Besides, the MTD in data set [1] (intravenously administered, previous first in-human phase-I trial, well tolerated at doses up to this value) is 10.2 mg/m^2. In data set [2], the toxic effects entry was “no incidence of toxic effects”. Further, the maximum tolerated dose result in data set [3] was “approximately 10.2 mg/m^2”. The “plasma selenite concentration at the end of the treatment” value in data set [4] (high doses of repeated selenite administration) was “returned to the baseline levels”. The “plasma selenite concentration with respect to the total dose” value in data set [4] (in vivo) is given as “linear increase”.
